Legend:
symptoms of anaphylaxis [1] = conditions: 30 mg, then 45 mg at approximately 5 minute intervals without amelioration, within about five minutes after the third dose
Description: A patient experiencing an allergic emergency initiates treatment at the onset of shortness of breath by self administering 30 mg of epinephrine free base in a lingual dosage form. After approximately 5 minutes pass without amelioration of the symptoms of anaphylaxis, the patient self administers a second lingual dosage form comprising 30 mg of epinephrine free base. After another approximately 5 minutes pass without amelioration of the symptoms of anaphylaxis, the patient self administers a third lingual dosage form comprising 45 mg of epinephrine free base.

symptoms of anaphylaxis [2] = conditions: 40 mg
Description: (§1) A patient experiencing an allergic emergency initiates treatment at the onset of shortness of breath by self administering 40 mg of epinephrine free base in a buccal dosage form.
as §1

CNC[C@H](O)c1ccc(O)c(O)c1 [epinephrine free base, epinephrine]
symptoms of anaphylaxis are relieved: patient's symptoms of anaphylaxis after the third lingual dose (symptoms of anaphylaxis [1]) | patient's symptoms of anaphylaxis after the third buccal dose (symptoms of anaphylaxis [2]; then 60 mg at approximately 5 minute intervals without amelioration, within about five minutes after the third dose) | patient's symptoms of anaphylaxis after the second buccal dose (symptoms of anaphylaxis [2]; then second 40 mg after approximately 5 minutes without amelioration, within about five minutes after the second dose)
